Results as given in patent US4921873A, “Antiviral and antitumor cyclohexadienone compositions” (Harbor Branch Oceanographic Institution, Inc., priority 1985, dated 1990).
Values belong to the molecule of their own block, whether it stands above or below them.

Experiments:
[1] = test system: HSV-I; experiment: HSV-I plaque inhibition disk assay (antiviral effectiveness); assay type: cell-based, herpes simplex-I; design: key to inhibition of plaque formation: +++: complete inhibition; ++: a few plaques around the outside of well; +: definite inhibition; +/-: questionable inhibition; -: no inhibition
Experimental: The following assay method was utilized to illustrate the antiviral effectiveness of the compound of Formula II. (1) Remove 75 cm^2 culture flasks from incubator (these were plated the previous week). (11) For assay, add 1×10^6 cells to each well (6 wells per culture dish). Bring each well to 2 ml with fresh medium. (1) Aspirate medium. (2) Add 0.5 of medium containing 200 pfu HSV-I. (3) Incubate […] with a small amount of shaking. (4) Add 2 ml MC-4000 to each well. (5) Place disks on surface and push through (1 mg/disc, 0.5 mg/disc, 0.25 mg/disc, etc. for crude extracts). (6) Incubate 48 hr. (making sure dishes remain level). Day 4: (1) Add 2 ml neutral red medium. (2) Incubate overnight.

[2] = test system: cells; experiment: Zone of cytotoxicity in antiviral disk assay; assay type: cell-based; details: read at Day 5
Experimental: The following assay method was utilized to illustrate the antiviral effectiveness of the compound of Formula II.
(11) For assay, add 1×10^6 cells to each well (6 wells per culture dish). Bring each well to 2 ml with fresh medium.
(4) Add 2 ml MC-4000 to each well.
(5) Place disks on surface and push through (1 mg/disc, 0.5 mg/disc, 0.25 mg/disc, etc. for crude extracts).
(1) Add 2 ml neutral red medium.

[3] = test system: L-1210 murine leukemia cells; experiment: L-1210 mouse leukemia cell cytotoxicity assay; assay type: cell-based; details: L-1210, at 200 μg/ml, in vitro
Experimental: The following assay method was utilized to illustrate the antitumor effectiveness of the compounds of formulas II, IV, V, VI and VII.
L1210 And P388 MOUSE LEUKEMIA CELL CYTOXICITY ASSAY 24-WELL PLATE SCREENING ASSAY AND TUBE ASSAY PROTOCOL
Media--Dulbeccos with glucose and pyruvate (Biologos, Inc) with 10% horse serum, (Biologos, Inc) and 1.0 μg/ml gentamicin (Gibco). Cells--L1210 and P-388 mouse leukemia cells (American Type Culture Collection) in media at a concentration of 5×10^4 cells/ml. Sterile 24-well culture plates (Nunc) for screening or 12×75 mm glass culture tubes (Becton-Dickinson) for tube assay. Microdispenser with 1 to 5 μl increments (Drummond Scientific Co. Broomall Pa). Finnpipette with […] and Finnpipette with 50 to 200 μl increments.
1. A sample of the composition to be assayed is added to each well or tube in an amount of from 200 μg/ml and 100 μg/ml for screening. For DDC of known active compounds use log concentrations from 100 μg/ml to 0.01 μg/ml for range-finding assay; when range has been determined, use five concentrations between highest and lowest active concentrations.
2. Add 2.0 ml of 5×10^4 cell suspension in media to each well or tube. Tubes are loosely covered with parafilm.
3. Incubate in 5% CO2 incubator 48 hours.
4. Visually read plates with inverted microscope, comparing with solvent control. Assign activity as follows: […]

[4] = Stability of isolated alcohol derivative at room temperature; assay type: physicochemical

Structure (SMILES): CC(=O)OCC(Cl)C1=CC(C)(C)C=CC1=O (stereo not drawn) [Formula II]
inhibition of plaque formation ([1]; 200 pfu, read at Day 5): ++
antiviral activity ([1]; results at Day 5, in words): definite antiviral activity
zone of cytotoxicity (diameter) [2]: 16 mm
viability at 200 µg/mL ([3]; Mus musculus, L1210, 48 h, read-out: survival): 100%

decomposition time [4]: two
Structure (SMILES): CC1(C)C=CC(=O)C(C(Cl)CO)=C1 (stereo not drawn) [Formula VIII]

Structure (SMILES): CC1(C)C=CC(=O)C(C2CO2)=C1 (stereo not drawn) [Formula VII]
survival ([3]; 48 hours, 2880 min): 28%
